{
  "source": "paper PMC6699497",
  "about": "(Drug Design, Development and Therapy, 2019)",
  "origin": "cited, not measured here",
  "key": {"[1]": {"settings": "species not given"}, "[2]": {"settings": "rat"}, "[3]": {"settings": "previous study compared with present value"}},
  "data": [
    {"smiles": "CNC(=O)c1c(C)oc2cc(Oc3ncnc4cc(OC)c(OC)cc34)ccc12", "note": "[Fruquintinib, 6-(6,7-dimethoxyquinazolin-4-yloxy) - N,2-dimethylbenzofuran-3-carboxamide]", "values": [
      {"measurement": "plasma protein binding fraction", "setting": "[1]", "result": "88–95%"},
      {"measurement": "oral bioavailability", "setting": "[2]", "result": "42–53%"},
      {"measurement": "Cmax", "setting": "[2]; [3]", "result": 326.00, "unit": "ng/mL"},
      {"measurement": "t1/2", "setting": "[2]; [3]", "result": 1.40, "unit": "h"}
    ]}
  ]
}
